ChEMBL document CHEMBL1909046, “DrugMatrix in vitro pharmacology data”

Key:
[1] = target: T1, Type-2 angiotensin II receptor (Homo sapiens, UniProt P50052); assay type: cell-based; conditions: cho-k1; also: in other assays of this panel Not Active means under 50% inhibition at 10 µM
T1 sequence (P50052 whole entry): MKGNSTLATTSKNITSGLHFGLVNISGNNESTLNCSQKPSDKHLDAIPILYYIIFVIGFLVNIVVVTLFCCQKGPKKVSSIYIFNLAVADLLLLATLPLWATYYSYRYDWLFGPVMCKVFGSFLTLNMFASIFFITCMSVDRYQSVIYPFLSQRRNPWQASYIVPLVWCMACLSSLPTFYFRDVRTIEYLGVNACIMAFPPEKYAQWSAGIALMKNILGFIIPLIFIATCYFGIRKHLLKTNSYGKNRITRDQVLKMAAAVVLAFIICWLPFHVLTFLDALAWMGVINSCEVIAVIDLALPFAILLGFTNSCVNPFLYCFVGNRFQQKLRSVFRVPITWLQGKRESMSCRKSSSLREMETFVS

[2] = DRUGMATRIX: ATPase, Na+/K+ enzyme inhibition (substrate: ATP); assay type: tissue-based, Sus scrofa, Heart; conditions: Not Active = under 50% inhibition at 10 µM
Substance-K receptor = target: T2, Substance-K receptor (Homo sapiens, UniProt P21452); assay type: cell membranes, CHO, Membrane; conditions: cho; also: in other assays of this panel Not Active means under 50% inhibition at 10 µM
T2 sequence (P21452 whole entry): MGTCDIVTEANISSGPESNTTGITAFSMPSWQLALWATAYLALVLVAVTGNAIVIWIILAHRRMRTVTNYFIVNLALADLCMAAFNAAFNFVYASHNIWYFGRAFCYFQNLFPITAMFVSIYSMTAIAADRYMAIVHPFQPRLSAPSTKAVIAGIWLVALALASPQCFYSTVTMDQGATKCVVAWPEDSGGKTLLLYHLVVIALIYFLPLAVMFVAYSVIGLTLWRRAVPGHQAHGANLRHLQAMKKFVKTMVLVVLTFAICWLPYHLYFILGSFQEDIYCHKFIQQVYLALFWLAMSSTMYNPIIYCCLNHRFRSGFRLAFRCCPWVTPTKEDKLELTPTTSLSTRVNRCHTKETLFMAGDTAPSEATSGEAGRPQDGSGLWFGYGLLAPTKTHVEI

D(4) dopamine receptor = target: T3, D(4) dopamine receptor (Homo sapiens, UniProt P21917); test: DRUGMATRIX: Dopamine D4.2 radioligand binding (ligand: [3H] Spiperone); assay type: cell membranes, CHO-K1, Membrane; conditions: cho-k1; Not Active = under 50% inhibition at 10 µM
T3 sequence (P21917 whole entry): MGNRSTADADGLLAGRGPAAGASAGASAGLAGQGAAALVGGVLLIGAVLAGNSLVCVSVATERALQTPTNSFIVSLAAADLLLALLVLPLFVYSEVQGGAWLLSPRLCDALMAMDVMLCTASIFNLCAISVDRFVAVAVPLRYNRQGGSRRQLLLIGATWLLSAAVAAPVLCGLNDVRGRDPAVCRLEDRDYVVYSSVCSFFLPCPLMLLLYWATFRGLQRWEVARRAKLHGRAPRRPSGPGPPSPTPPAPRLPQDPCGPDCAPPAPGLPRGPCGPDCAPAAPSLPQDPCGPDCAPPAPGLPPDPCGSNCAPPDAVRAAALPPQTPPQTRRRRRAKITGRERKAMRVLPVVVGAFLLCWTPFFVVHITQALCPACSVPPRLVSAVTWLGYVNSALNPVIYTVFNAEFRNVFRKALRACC

[3] = target: T4, 3-hydroxy-3-methylglutaryl-coenzyme A reductase (Homo sapiens, UniProt P04035); set-up: species or system Escherichia coli;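 also: enzyme inhibition assay of HMG-CoA reductase using radiolabeled [14C]HMG-CoA as substrate; in other assays of this panel Not Active means under 50% inhibition at 10 µM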
T4 sequence (P04035 whole entry): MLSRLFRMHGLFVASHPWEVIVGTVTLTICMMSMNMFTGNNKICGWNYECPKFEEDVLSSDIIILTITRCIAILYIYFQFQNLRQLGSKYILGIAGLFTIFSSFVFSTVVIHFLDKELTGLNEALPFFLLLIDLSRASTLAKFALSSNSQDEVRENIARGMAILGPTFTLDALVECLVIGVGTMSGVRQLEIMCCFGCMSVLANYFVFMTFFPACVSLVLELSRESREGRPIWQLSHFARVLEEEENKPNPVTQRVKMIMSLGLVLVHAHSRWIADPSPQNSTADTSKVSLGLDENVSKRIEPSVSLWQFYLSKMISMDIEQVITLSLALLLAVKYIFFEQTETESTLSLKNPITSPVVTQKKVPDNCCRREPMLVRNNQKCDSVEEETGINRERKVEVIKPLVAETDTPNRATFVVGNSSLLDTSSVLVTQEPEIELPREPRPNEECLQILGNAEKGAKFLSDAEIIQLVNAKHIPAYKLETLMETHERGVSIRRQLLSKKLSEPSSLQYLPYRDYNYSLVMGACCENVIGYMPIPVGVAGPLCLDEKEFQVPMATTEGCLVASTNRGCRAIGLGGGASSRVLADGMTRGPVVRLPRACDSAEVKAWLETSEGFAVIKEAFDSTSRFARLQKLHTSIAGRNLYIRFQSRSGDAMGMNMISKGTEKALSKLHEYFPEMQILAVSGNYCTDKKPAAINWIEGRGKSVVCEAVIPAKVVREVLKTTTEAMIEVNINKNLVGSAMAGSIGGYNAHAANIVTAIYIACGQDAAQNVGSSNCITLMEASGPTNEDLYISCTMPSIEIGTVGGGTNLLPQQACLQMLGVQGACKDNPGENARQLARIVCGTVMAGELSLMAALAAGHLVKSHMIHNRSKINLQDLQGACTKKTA

Mu-type opioid receptor = Mu-type opioid receptor (Homo sapiens, UniProt P35372); test: DRUGMATRIX: Opiate mu (OP3, MOP) radioligand binding (ligand: [3H] Diprenorphine); assay type: cell membranes, CHO-K1, Membrane; conditions: cho-k1; Not Active = under 50% inhibition at 10 µM
Chain of Mu-type opioid receptor (P35372 whole entry): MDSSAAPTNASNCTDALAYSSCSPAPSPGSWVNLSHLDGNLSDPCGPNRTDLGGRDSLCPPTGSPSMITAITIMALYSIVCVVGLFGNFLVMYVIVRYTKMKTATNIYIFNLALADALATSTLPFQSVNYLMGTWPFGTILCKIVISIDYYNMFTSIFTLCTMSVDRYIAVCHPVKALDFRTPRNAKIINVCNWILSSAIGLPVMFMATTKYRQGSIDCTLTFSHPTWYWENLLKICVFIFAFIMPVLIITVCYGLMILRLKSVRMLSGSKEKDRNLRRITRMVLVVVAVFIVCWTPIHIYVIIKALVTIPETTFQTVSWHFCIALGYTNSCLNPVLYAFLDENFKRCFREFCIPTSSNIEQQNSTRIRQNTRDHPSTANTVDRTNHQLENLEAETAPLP

[4] = DRUGMATRIX: Phosphodiesterase PDE3 enzyme inhibition (substrate: [3H]cAMP + cAMP); assay type: tissue-based, Homo sapiens; conditions: platelet, Not Active = under 50% inhibition at 10 µM
Cytochrome P450 2C19 = Cytochrome P450 2C19 (Homo sapiens, UniProt P33261); conditions: bti-tn-5b1-4; also: in other assays of this panel Not Active means under 50% inhibition at 10 µM
Chain of Cytochrome P450 2C19 (P33261 whole entry): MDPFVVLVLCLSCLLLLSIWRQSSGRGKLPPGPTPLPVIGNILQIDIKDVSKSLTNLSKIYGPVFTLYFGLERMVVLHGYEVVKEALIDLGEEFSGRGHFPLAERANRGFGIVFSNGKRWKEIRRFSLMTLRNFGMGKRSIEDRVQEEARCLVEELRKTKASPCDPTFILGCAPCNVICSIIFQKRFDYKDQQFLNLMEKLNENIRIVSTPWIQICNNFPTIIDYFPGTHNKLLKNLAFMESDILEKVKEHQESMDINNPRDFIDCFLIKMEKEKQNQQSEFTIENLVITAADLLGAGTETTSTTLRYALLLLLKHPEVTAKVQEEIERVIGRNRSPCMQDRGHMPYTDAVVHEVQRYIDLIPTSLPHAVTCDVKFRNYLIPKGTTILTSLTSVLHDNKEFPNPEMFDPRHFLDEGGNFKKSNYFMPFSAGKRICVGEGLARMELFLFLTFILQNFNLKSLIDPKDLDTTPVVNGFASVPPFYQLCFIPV

| SMILES | IC50 [1] | IC50 [2] | Ki [2] | IC50 (Substance-K receptor) | IC50 (D(4) dopamine receptor) | IC50 [3] | IC50 (Mu-type opioid receptor) | IC50 [4] | Ki [4] | IC50 (Cytochrome P450 2C19) | Ki (Cytochrome P450 2C19) | IC50 ([3]; read-out: IC50) | IC50 ([4]; read-out: IC50) |
| --- | --- | --- | --- | --- | --- | --- | --- | --- | --- | --- | --- | --- | --- |
| Cc1[nH]cnc1CN1CCc2c(c3ccccc3n2C)C1=O [ALOSETRON] | Not Active | Not Active | Not Active | Not Active | Not Active | Not Active | Not Active | Not Active | Not Active | Not Active | Not Active |  |  |
| CCCc1cc(=O)[nH]c(=S)[nH]1 [PROPYLTHIOURACIL] | Not Active | Not Active | Not Active | Not Active | Not Active | Not Active | Not Active | Not Active | Not Active | Not Active | Not Active |  |  |
| Nc1nc2c(ncn2COC(CO)CO)c(=O)[nH]1 [GANCICLOVIR] | Not Active | Not Active | Not Active | Not Active | Not Active | Not Active | Not Active | Not Active | Not Active | Not Active | Not Active |  |  |
| CC1(C)S[C@@H]2[C@H](NC(=O)[C@H](NC(=O)N3CCNC3=O)c3ccccc3)C(=O)N2[C@H]1C(=O)O [AZLOCILLIN] | Not Active | Not Active | Not Active | Not Active | Not Active | Not Active | Not Active | Not Active | Not Active | Not Active | Not Active |  |  |
| COc1ccc2cc(CC(=O)O)ccc2c1 | Not Active | Not Active | Not Active | Not Active | Not Active | Not Active | Not Active | Not Active | Not Active | Not Active | Not Active |  |  |
| CCOC(=O)OC(C)OC1=C(C(=O)Nc2ccccn2)N(C)S(=O)(=O)c2ccccc21 (stereo not drawn) [AMPIROXICAM] | Not Active | Not Active | Not Active | Not Active | Not Active | Not Active | Not Active | Not Active | Not Active | Not Active | Not Active |  |  |
| COCc1c(C(C)C)nc(C(C)C)c(/C=C/[C@@H](O)C[C@@H](O)CC(=O)O)c1-c1ccc(F)cc1 [CERIVASTATIN] | Not Active | Not Active | Not Active | Not Active | Not Active |  | Not Active | Not Active | Not Active | Not Active | Not Active | 0.085 nM |  |
| O=C1NC(=O)C(c2ccccc2)(c2ccccc2)N1 [PHENYTOIN] | Not Active | Not Active | Not Active | Not Active | Not Active | Not Active | Not Active | Not Active | Not Active | Not Active | Not Active |  |  |
| O=C1CCc2cc(OCCCCc3nnnn3C3CCCCC3)ccc2N1 [CILOSTAZOL] | Not Active | Not Active | Not Active | Not Active | Not Active | Not Active | Not Active |  |  | Not Active | Not Active |  | 271 nM |
| C=C1CC[C@H](O)C/C1=C/C=C1\CCC[C@]2(C)[C@@H]([C@H](C)/C=C/[C@H](C)C(C)C)CC[C@@H]12 [ERGOCALCIFEROL] | Not Active | Not Active | Not Active | Not Active | Not Active | Not Active | Not Active | Not Active | Not Active | Not Active | Not Active |  |  |
| COc1ccc(CN(CCN(C)C)c2ccccn2)cc1 [PYRILAMINE] | Not Active | Not Active | Not Active | Not Active | Not Active | Not Active | Not Active | Not Active | Not Active | Not Active | Not Active |  |  |
| CN1C(C(=O)Nc2ccccn2)=C(O)c2ccccc2S1(=O)=O [PIROXICAM] | Not Active | Not Active | Not Active | Not Active | Not Active | Not Active | Not Active | Not Active | Not Active | Not Active | Not Active |  |  |
| CCc1ccc(C(=O)C(C)CN2CCCCC2)cc1 (stereo not drawn) [EPERISONE] | Not Active | Not Active | Not Active | Not Active | Not Active | Not Active | Not Active | Not Active | Not Active | Not Active | Not Active |  |  |
| CC(=O)[C@@]1(O)CC[C@H]2[C@@H]3C[C@H](C)C4=CC(=O)C=C[C@]4(C)[C@@]3(F)[C@@H](O)C[C@@]21C [FLUOROMETHOLONE] | Not Active | Not Active | Not Active | Not Active | Not Active | Not Active | Not Active | Not Active | Not Active | Not Active | Not Active |  |  |
